According to the CheMixHub viscosity set:

Assay: xn = mol fraction of the nth substance listed

C1CCCCC1 + CCCO
Conditions	viscosity [mPa·s]
298.15 K, 100 kPa, x2 = 0.0547	0.8988
298.15 K, 100 kPa, x2 = 0.1077	0.9091
298.15 K, 100 kPa, x2 = 0.1968	0.9202
298.15 K, 100 kPa, x2 = 0.3164	0.9358
298.15 K, 100 kPa, x2 = 0.4278	1.013
298.15 K, 100 kPa, x2 = 0.6293	1.243
298.15 K, 100 kPa, x2 = 0.8064	1.502
298.15 K, 100 kPa, x2 = 0.8873	1.626
298.15 K, 101 kPa, x2 = 0.0166	0.873
298.15 K, 101 kPa, x2 = 0.0647	0.865
298.15 K, 101 kPa, x2 = 0.1219	0.867
298.15 K, 101 kPa, x2 = 0.2231	0.889
298.15 K, 101 kPa, x2 = 0.3207	0.946
298.15 K, 101 kPa, x2 = 0.3805	0.994
298.15 K, 101 kPa, x2 = 0.7039	1.371
298.15 K, 101 kPa, x2 = 0.8023	1.529
303.15 K, 101 kPa, x2 = 0.6491	1.1
303.15 K, 101.33 kPa, x2 = 0.109	0.8411
303.15 K, 101.33 kPa, x2 = 0.208	0.8728
303.15 K, 101.33 kPa, x2 = 0.3385	0.9327
303.15 K, 101.33 kPa, x2 = 0.4215	0.9852
303.15 K, 101.33 kPa, x2 = 0.6115	1.141
303.15 K, 101.33 kPa, x2 = 0.708	1.237
303.15 K, 101.33 kPa, x2 = 0.8094	1.37
308.15 K, 100 kPa, x2 = 0.0547	0.718
308.15 K, 100 kPa, x2 = 0.1077	0.7248
308.15 K, 100 kPa, x2 = 0.1968	0.7355
308.15 K, 100 kPa, x2 = 0.3164	0.7941
308.15 K, 100 kPa, x2 = 0.4278	0.8335
308.15 K, 100 kPa, x2 = 0.5319	0.8971
308.15 K, 100 kPa, x2 = 0.6293	0.9922
308.15 K, 100 kPa, x2 = 0.7206	1.095
308.15 K, 100 kPa, x2 = 0.8064	1.203
308.15 K, 100 kPa, x2 = 0.8873	1.317
308.15 K, 100 kPa, x2 = 0.9635	1.491
308.15 K, 101 kPa, x2 = 0.0166	0.736
308.15 K, 101 kPa, x2 = 0.0647	0.73
308.15 K, 101 kPa, x2 = 0.1219	0.732
308.15 K, 101 kPa, x2 = 0.2231	0.746
308.15 K, 101 kPa, x2 = 0.3207	0.782
308.15 K, 101 kPa, x2 = 0.3805	0.818
308.15 K, 101 kPa, x2 = 0.4203	0.845
308.15 K, 101 kPa, x2 = 0.6491	1.022
308.15 K, 101 kPa, x2 = 0.7039	1.099
308.15 K, 101 kPa, x2 = 0.8023	1.218
313.15 K, 101 kPa, x2 = 0.6491	0.9392
318.15 K, 101 kPa, x2 = 0.0166	0.634
318.15 K, 101 kPa, x2 = 0.0647	0.626
318.15 K, 101 kPa, x2 = 0.1219	0.624
318.15 K, 101 kPa, x2 = 0.2231	0.634
318.15 K, 101 kPa, x2 = 0.3207	0.66
318.15 K, 101 kPa, x2 = 0.3805	0.683
318.15 K, 101 kPa, x2 = 0.4203	0.706
318.15 K, 101 kPa, x2 = 0.7039	0.896
318.15 K, 101 kPa, x2 = 0.8023	0.992

CCC(C)=O + CCCCCCC
298 K, 101.33 kPa
Conditions	viscosity [mPa·s]
x2 = 0.1271	0.3686
x2 = 0.2092	0.3655
x2 = 0.3055	0.3637
x2 = 0.4593	0.3646
x2 = 0.5955	0.3649
x2 = 0.7044	0.3677
x2 = 0.8014	0.3721
x2 = 0.9011	0.3789

CC(=O)OC(C)C(C)C (stereo not given) + C=CC#N
viscosity [mPa·s], 101.33 kPa
Conditions	x2 = 0.096	x2 = 0.1903	x2 = 0.287	x2 = 0.3796	x2 = 0.4771	x2 = 0.582	x2 = 0.6783	x2 = 0.7861	x2 = 0.894
298.15 K	0.761	0.726	0.684	0.641	0.595	0.54	0.493	0.44	0.388
303.15 K	0.71	0.681	0.641	0.601	0.558	0.51	0.465	0.417	0.37
308.15 K	0.663	0.639	0.604	0.565	0.526	0.48	0.44	0.396	0.353
